Laboratory results published in patent publication US20180221435A1, “ITCH TREATMENT USING A COMBINATION OF NEUROKININ-1, GASTRIN RELEASING PEPTIDE, AND GLUTAMATE RECEPTOR ANTAGONISTS” (The Regents of the University of California, priority 2013, published 2018).
“Also recorded” adds a separate entry of the source.

Tests used:
[1] = test system: superficial dorsal horn neurons; test: In vivo single-unit recording, noxious pinch-evoked responses, spinal superfusion of antagonists; parameters: species or system mice; settings: pinch at end of 1 min superfusion
Description: Akiyama T et al., The Journal of neuroscience: the official journal of the Society for Neuroscience 29(20):6691-6699 (2009)]. Anesthesia was induced by sodium pentobarbital (60 mg/kg ip) and maintained by supplemental injections (10-20 mg/kg/hr). […] A tungsten microelectrode recorded single-unit activity in the lumbar spinal cord. A chemical search strategy [Akiyama T et al., Journal of neurophysiology 102(4):2176-2183 2009; […] Units were classified as wide dynamic range (WDR)-type if they responded in a graded manner to innocuous mechanical stimulation (brushing, cotton wisp) and noxious pinch, or nociceptive-specific (NS) if they responded to noxious pinch (and to the 55 mN von Frey stimulus) but not to the cotton wisp or brush stimuli. […] Akiyama T et al., The Journal of neuroscience: the official journal of the Society for Neuroscience 29(20):6691-6699 (2009)]. […] At the end of the antagonist superfusion, the noxious pinch stimulus was delivered again at the same site on the receptive field. Thirty minutes later, the noxious pinch stimulus was delivered in the same manner. Action potentials were recorded to a computer and counted using Chart software (AD Instruments, Colorado Springs Colo.) and Spike2 software (CED Instruments). […]

[2] = test system: superficial dorsal horn neurons; test: Baseline activity of superficial dorsal horn neurons before and after antagonist application; format: in vivo, mice; settings: ± SEM
Description: The single-unit recording from the lumbar spinal cord was conducted as previously detailed [Akiyama T et al., Journal of neurophysiology 102(4):2176-2183 (2009); Akiyama T et al., The Journal of neuroscience: the official journal of the Society for Neuroscience 29(20):6691-6699 (2009)]. Anesthesia was induced by sodium pentobarbital (60 mg/kg ip) and maintained by supplemental injections (10-20 mg/kg/hr). A gravity-driven perfusion system allowed artificial cerebrospinal fluid (Krebs: 117 mM NaCl, 3.6 mM KCl, 2.5 mM CaCl2, 1.2 mM MgCl2, 1.2 mM NaH2PO4, 25 mM NaHCO3 and 11 mM glucose which was equilibrated with 95% 02 and 5% CO2 at 37° C.) to be superfused continually over the exposed lumbosacral spinal cord [Akiyama T et al., PloS one 6(7):e22665 (2011)]. A tungsten microelectrode recorded single-unit activity in the lumbar spinal cord. A chemical search strategy [Akiyama T et al., Journal of neurophysiology 102(4):2176-2183 2009; Akiyama T et al., The Journal of neuroscience: the official journal of the Society for Neuroscience 29(20):6691-6699 (2009)] was used to identify and isolate chloroquine-responsive units. Our search strategy was intended to maximize the chance of isolating a chloroquine-responsive neuron; it was assumed that such neurons either gave rise to ascending projections, or served as interneurons in segmental scratch-reflex circuitry, and no attempt was presently made to distinguish between these possibilities.
There was no significant effect of any of the antagonists on the baseline activity of superficial dorsal horn neurons that were subsequently show to respond to pruritogens. […] Values prior to, and after administration of each antagonist individually or in combination, are as follows. NK-1 antagonist L-733060: pre-application 0.88 Hz±0.23 (SEM), post-antagonist 0.72 Hz±0.19 (n=10). GRPR antagonist RC-3095: pre-application 0.54 Hz±0.54, post-antagonist: 0.53 Hz±0.53 (n=4). CNQX: pre-application 0.53 Hz±0.14, post-antagonist 0.64 Hz±0.21 (n=22). CNQX+L-733060: pre-application 0.52 Hz±0.17, post-antagonists 0.43 Hz±0.11 (n=26). CNQX+L-733060+RC-3095: pre-application 0.14 Hz±0.06, post-antagonists 0.17 Hz±0.06 (n=9).

[3] = test system: superficial dorsal horn neurons; test: In vivo single-unit recording, id histamine-evoked firing, spinal superfusion of antagonists; parameters: species or system mice
Description: Akiyama T et al., The Journal of neuroscience: the official journal of the Society for Neuroscience 29(20):6691-6699 (2009)]. Anesthesia was induced by sodium pentobarbital (60 mg/kg ip) and maintained by supplemental injections (10-20 mg/kg/hr). […] A tungsten microelectrode recorded single-unit activity in the lumbar spinal cord. A chemical search strategy [Akiyama T et al., Journal of neurophysiology 102(4):2176-2183 2009; […] Following mechanical stimulation, histamine (50 μg) was injected id within the same receptive field at a different location via a separate injection cannula. Following the id histamine injection, we tested the effects of antagonists for the receptors of NK1, GRP, or AMPA/kainate in the same manner as described above for chloroquine. […] Following the AITC application, we tested the effects of the NK-1 receptor antagonist, the AMPA/kainate receptor antagonist, or a combination of both antagonists in the same manner as described above for chloroquine. Action potentials were recorded to a computer and counted using Chart software (AD Instruments, Colorado Springs Colo.) and Spike2 software (CED Instruments). […] Mean peak responses elicited by noxious pinch were compared by one way repeated-measures ANOVA followed by post-hoc Bonferroni test, with p<0.05 set as significant. At the end of each experiment, an electrolytic lesion was made at the spinal cord recording site.

## N#Cc1cc2[nH]c(=O)c(=O)[nH]c2cc1[N+](=O)[O-] [CNQX]
[1]
  noxious pinch-evoked response, effect of spinal superfusion: significantly reduced
[2]; averaged over 1 min following antagonist application
  baseline neuronal firing rate, post-antagonist: 0.64 Hz
[2]; averaged over 1 min prior to antagonist application
  baseline neuronal firing rate, pre-application: 0.53 Hz
[3]; NS units, vs vehicle
  histamine-evoked response of NS units: significantly reduced
[3]; WDR units, vs vehicle
  histamine-evoked response of WDR units: significantly reduced
[3]; all units
  histamine-evoked firing, effect of spinal superfusion: significantly attenuated histamine-evoked firing to a level not different from that elicited by id injection of vehicle (saline); also recorded: almost completely abolished histamine-evoked firing
